Test results: patent US8114886B2, “Pyridylmethylsulfone derivative” (Daiichi Sankyo Company, Limited, priority 2005, dated 2012)

Key:
[1] = tested on: β-amyloid protein (Aβ) secreted by E35 cells (H4 cells with APP751 gene); assay: Screening system using E35 cells for inhibition of production/secretion of β-amyloid protein (sandwich ELISA of Aβ in culture medium); format: cell-based, human; settings: Homo sapiens, 24 hours with compound, Aβ in culture supernatant by ELISA, read-out: Inhibitory Activity for Production of A(EC50)
Method: The activity of the compound inhibiting β-amyloid protein production was measured on E35 cells prepared by introducing APP751 gene, a gene of a human wild type β-amyloid protein precursor protein, to human glioma cells (H4 cells), by quantifying the amount of β-amyloid protein (Aβ) secreted to the culture medium by means of a sandwich type Enzyme-Linked Immunosorbent Assay (ELISA) method.
That is, E35 cells inoculated on a 96-well plate were cultured in an incubator at 37° C. which was maintained at equilibrium with 5% carbon dioxide, using Dulbecco's Modified Eagle's Medium containing inactivated 10% fetal bovine serum as the culture medium. After 24 hours from the inoculation, a test compound dissolved in a DMSO solution was added. The DMSO solution of the test compound was prepared at a concentration of 2000 times of the final concentration, such that the DMSO concentration in the culture medium would be 0.05%. After culturing for another 24 hours, the culture supernatant was recovered, and this was added to a 96-well plate for ELISA onto which a monoclonal antibody against Aβ, 25-1, was solid-phased. The plate was incubated at 4° C. for 16 to 20 hours. The plate was washed with phosphate buffer solution (pH 7.4), and then a biotinylated monoclonal antibody against Aβ, MA32-40, was added thereto. The plate was left to stand at 4° C. for 2 hours. The plate was washed again with phosphate buffer solution, and then alkaline phosphatase-conjugated streptavidin was added to conjugate streptavidin to biotin. Subsequently, the plate was washed with phosphate buffer solution. To this, Blue Phos (Kirkegaard & Perry Laboratories, Inc.) was added. After incubating the plate for an appropriate time, the reaction was terminated with an acid, and the absorbance for each well was measured. The amount of Aβ contained in the culture supernatant was determined from a calibration curve which was produced separately, and the amount was compared with that of control cells to which the compound was not added. Thus, the concentration at which 50% of the Aβ production is inhibited (EC50 value) was calculated. In addition, the 25-1 antibody and MA32-40 antibody used in ELISA were mouse monoclonal antibodies derived from the hybridoma cell clone lines, which were each produced and selected according to a standard method using Aβ25-35 and Aβ1-8 as antigens, respectively, and which specifically recognize their respective antigens. […]
The scores indicate ++++ for the case where EC50 was 5 nM or less; +++ for the case where EC50 was 5 to 50 nM; ++ for the case where EC50 was 50 to 500 nM; and + for the case where EC50 was 500 nM to 5 μM.

Row | Compound | melting point | EC50 [1]
1 | Cc1cc(C(=O)O)ncc1C(c1cc(F)ccc1F)S(=O)(=O)c1ccc(Cl)cc1 (stereo not shown) [Example 3, 5-[[(4-Chlorophenyl)sulfonyl](2,5-difluorophenyl)methyl]-4-methylpyridine-2-carboxylic acid] | 208 to 209 °C | –
2 | Cc1cc(C(=O)N(C)C)ncc1C(c1cc(F)ccc1F)S(=O)(=O)c1ccc(C(F)(F)F)nc1 (stereo not shown) [Example 28A, 5-[(2,5-Difluorophenyl) [[6-(trifluoromethyl)pyridin-3-yl]sulfonyl]methyl]-N,N,4-trimethylpyridine-2-carboxamide] | – | 500 to 5000 nM
3 | Cc1cc(C(=O)N(C)C)ncc1C(c1cc(F)ccc1F)[S+]([O-])c1ccc(C(F)(F)F)nc1 (stereo not shown) [Example 28B, 5-[(2,5-difluorophenyl)[[6-(trifluoromethyl)pyridin-3-yl]sulfinyl]methyl]-N,N,4-trimethylpyridine-2-carboxamide] | – | 500 to 5000 nM
4 | Cc1cc(C(N)=O)ncc1C(c1cc(F)ccc1F)S(=O)(=O)c1ccc(C(F)(F)F)nc1 (stereo not shown) [Example 32, 5-[(2,5-Difluorophenyl)[[6-(trifluoromethyl)pyridin-3-yl]sulfonyl]methyl]-4-methylpyridine-2-carboxamide] | – | 5 to 50 nM
5 | Cc1cc(C(=O)N(C)C)ncc1C(c1c(F)ccc(F)c1F)S(=O)(=O)c1ccc(F)cc1 (stereo not shown) [Example 36A, 5-[[(4-Fluorophenyl)sulfonyl](2,3,6-trifluorophenyl)methyl]-N,N,4-trimethylpyridine-2-carboxamide] | – | 5 to 50 nM
6 | Cc1cc(C(=O)N(C)C)ncc1C(c1c(F)ccc(F)c1F)[S+]([O-])c1ccc(F)cc1 (stereo not shown) [Example 36B, 5-[[(4-fluorophenyl)sulfinyl](2,3,6-trifluorophenyl)methyl]-N,N,4-trimethylpyridine-2-carboxamide] | – | 500 to 5000 nM
7 | Cc1cc(C(N)=O)ncc1C(c1c(F)ccc(F)c1F)[S+]([O-])c1ccc(F)cc1 (stereo not shown) [Example 38, 5-[[(4-Fluorophenyl)sulfinyl](2,3,6-trifluorophenyl)methyl]-4-methylpyridine-2-carboxamide] | – | 5 to 50 nM
8 | COc1ccc(S(=O)(=O)C(c2cnc(C(=O)O)cc2C)c2cc(F)ccc2F)cc1 (stereo not shown) [Example 42, 5-[(2,5-Difluorophenyl)[(4-methoxyphenyl)sulfonyl]methyl]-4-methylpyridine-2-carboxylic acid] | 194 to 195 °C | –
9 | COc1ccc(S(=O)(=O)C(c2cnc(C(=O)O)cc2C)c2cc(F)ccc2F)cc1F (stereo not shown) [Example 46, 5-[(2,5-Difluorophenyl)[(3-fluoro-4-methoxyphenyl)sulfonyl]methyl]-4-methylpyridine-2-carboxylic acid] | 196 to 197 °C | –
10 | Cc1cc(C(=O)NCCO)ncc1C(c1cc(F)ccc1F)S(=O)(=O)c1ccc(C(F)(F)F)cn1 (stereo not shown) [Example 55, 5-[(2,5-Difluorophenyl)[[5-(trifluoromethyl)pyridin-2-yl]sulfonyl]methyl]-N-(2-hydroxyethyl)-4-methylpyridine-2-carboxamide] | – | 50 to 500 nM
11 | Cc1cc(C(=O)NCCO)ncc1C(c1cc(F)ccc1F)S(=O)(=O)c1ccccc1 (stereo not shown) [Example 59, 5-[(2,5-Difluorophenyl)(phenylsulfonyl)methyl]-N-(2-hydroxyethyl)-4-methylpyridine-2-carboxamide] | – | 5 to 50 nM
12 | Cc1cc(S(=O)(=O)C(c2cnc(C(=O)NCCO)cc2C)c2cc(F)ccc2F)ccc1F (stereo not shown) [Example 71, 5-[(2,5-Difluorophenyl)[(4-fluoro-3-methylphenyl)sulfonyl]methyl]-N-(2-hydroxyethyl)-4-methylpyridine-2-carboxamide] | – | 5 to 50 nM
13 | Cc1cc(C(=O)NCCC(=O)O)ncc1C(c1cc(F)ccc1F)S(=O)(=O)c1ccc(F)cc1 (stereo not drawn) [Example 81, N-[[5-[(2,5-difluorophenyl)[(4-fluorophenyl)sulfonyl]methyl]-4-methylpyridin-2-yl]carbonyl]-β-alanine] | 223 to 226 °C | –
14 | CC(=O)OCNC(=O)c1cc(C)c(C(c2cc(F)ccc2F)S(=O)(=O)c2ccc(F)cc2)cn1 (stereo not shown) [Example 86, [[[5-[(2,5-Difluorophenyl)(4-fluorophenylsulfonyl)methyl]-4-methylpyridin-2-yl]carbonyl]amino]methyl acetate] | 111 to 113 °C | –
15 | Cc1cc(C(=O)N2CC(O)C2)ncc1C(c1cc(F)ccc1F)S(=O)(=O)c1ccc(F)cc1 (stereo not shown) [Example 88, 1-[[5-[(2,5-Difluorophenyl)[(4-fluorophenyl)sulfonyl]methyl]-4-methylpyridin-2-yl]carbonyl]azetidin-3-ol] | 219 to 221 °C | –
16 | CCOC(=O)c1cc(C)c(C(c2cc(F)ccc2F)S(=O)(=O)c2ccc(F)cc2)cn1 (stereo not shown) [Example 91, Diethyl 5-[(2,5-difluorophenyl)[(4-fluorophenyl)sulfonyl]methyl]-4-methylpyridine-2-carboxylic acid] | 151 to 153 °C | –

Next, values leading:

Row | melting point | EC50 [1] | Compound
17 | – | ≤ 5 nM | Cc1cc(C(N)=O)ncc1C(c1cc(F)ccc1F)S(=O)(=O)c1ccc(F)cc1 (stereo not shown) [Example 15, 5-[(2,5-Difluorophenyl)[(4-fluorophenyl)sulfonyl]methyl]-4-methylpyridine-2-carboxamide]
18 | – | 5 to 50 nM | CNC(=O)c1cc(C)c(C(c2cc(F)ccc2F)[S+]([O-])c2ccc(F)cc2)cn1 (stereo not shown) [Example 21, 5-[(2,5-Difluorophenyl)[(4-fluorophenyl)sulfinyl]methyl]-N,4-dimethylpyridine-2-carboxamide]
19 | – | 5 to 50 nM | Cc1cc(C(N)=O)ncc1C(c1cc(F)ccc1F)[S+]([O-])c1ccc(F)cc1 (stereo not shown) [Example 24, 5-[(2,5-Difluorophenyl) [(4-fluorophenyl)sulfinyl]methyl]-4-methylpyridine-2-carboxamide]
20 | – | ≤ 5 nM | Cc1cc(C(=O)NCCO)ncc1C(c1cc(F)ccc1F)S(=O)(=O)c1ccc(C(F)(F)F)nc1 (stereo not shown) [Example 30, 5-[(2,5-Difluorophenyl) [[6-(trifluoromethyl)pyridin-3-yl]sulfonyl]methyl]-N-(2-hydroxyethyl)-4-methylpyridine-2-carboxamide]
21 | – | ≤ 5 nM | Cc1cc(C(N)=O)ncc1C(c1c(F)ccc(F)c1F)S(=O)(=O)c1ccc(F)cc1 (stereo not shown) [Example 39, 5-[[(4-Fluorophenyl)sulfonyl](2,3,6-trifluorophenyl)methyl]-4-methylpyridine-2-carboxamide]
22 | – | ≤ 5 nM | Cc1ccc(S(=O)(=O)C(c2cnc(C(=O)NCCO)cc2C)c2cc(F)ccc2F)cc1 (stereo not shown) [Example 63, 5-[(2,5-Difluorophenyl)[(4-methylphenyl)sulfonyl]methyl]-N-(2-hydroxyethyl)-4-methylpyridine-2-carboxamide]
23 | – | ≤ 5 nM | Cc1cc(S(=O)(=O)C(c2cnc(C(=O)NCCO)cc2C)c2cc(F)ccc2F)ccc1Cl (stereo not shown) [Example 67, 5-[[(4-Chloro-3-methylphenyl)sulfonyl](2,5-difluorophenyl)methyl]-N-(2-hydroxyethyl)-4-methylpyridine-2-carboxamide]
24 | – | ≤ 5 nM | CC(=O)NCCNC(=O)c1cc(C)c(C(c2cc(F)ccc2F)S(=O)(=O)c2ccc(F)cc2)cn1 (stereo not shown) [Example 83, N-[2-(acetylamino)ethyl]-5-[(2,5-difluorophenyl)[(4-fluorophenyl)sulfonyl]methyl]-4-methylpyridine-2-carboxamide]
25 | – | ≤ 5 nM | Cc1cc(C(N)=O)ncc1C(c1c(F)ccc(F)c1F)S(=O)(=O)c1ccccc1 (stereo not shown) [Example 105, 4-Methyl-5-[(phenylsulfonyl)(2,3,6-trifluorophenyl)methyl]pyridine-2-carboxamide]
